Experimental data reported in US12180084B2, “Cerium (III) carbonate formulations” (THE REGENTS OF THE UNIVERSITY OF CALIFORNIA, priority 2019, dated 2024).

Assay: MB dye photodegradation in ZnO-based sunscreen film (Neutrogena Sheer Zinc Face Mineral Sunscreen SPF 50)
Experimental: A commercial ZnO-based sunscreen (Neutrogena Sheer Zinc Face™ Mineral Sunscreen SPF 50 consisting of 21.6% of ZnO solid as the only listed active ingredient) was mixed with Methylene Blue (MB) organic dye as follows. In a plastic cup, (10 g capacity; obtained from Flacktek Inc. USA), sunscreen (3 g; Neutrogena Sheer Zinc Face™ Mineral Sunscreen SPF 50) and an aqueous solution of 10^−3 M MB dye (0.6 mL) was mixed with a spatula for 3 minutes. Immediately afterwards, the mixture was high sheared in a Flactek high-speed mixer at 3500 rpm for 3 min. […] These wet drawn down coupons were treated with UV radiation in a photoreactor, without drying, for varying times and were subsequently directly extracted. The extraction employed ethanol solvent to remove MB dye and permit its quantification prior/post UV radiation exposure, so as to determine the extent of MB dye degradation by subtraction. Specifically, to accomplish this, two small strips (100 mg of each) were cut from the wet drawn-down coupons with a scissor/sharp blade so as to not smudge the film of applied sunscreen, and these strips were subsequently exposed to UV radiation in a photoreactor. The photoreactor was equipped with 14 UV-lamps of 254 nm wavelength and delivering a power of 145-155 lux for 4 h. The relative humidity during UV-exposure was controlled to be 100% by placing a water-filled Petri dish (200 mL capacity) in the photoreactor chamber for at least 16 h prior to start of photocatalysis experiment. […] This resulting clear ethanol solution of MB dye was used for measurement of the MB dye concentration UV-visible spectrophotometry, using the absorbance maximum at 654 nm. A control experiment was similarly performed to quantify amount of MB dye from sunscreen films which never underwent UV-radiation exposure (t=0 time point). […] The extent of dye photodegradation was determined by calculating the percentage of decrease in the absorbance intensity of dye at the wavelength of maximum absorption. […]

## O.O.O.O.O.O.O=C([O-])[O-].O=C([O-])[O-].O=C([O-])[O-].[Ce+3].[Ce+3] [Ce2(CO3)3·6H2O]
0.5 wt. % added agent relative to sunscreen weight
  % of MB dye photodegradation after 4 h of UV irradiation in photoreactor: 36%±2
0.5 wt. % added agent relative to sunscreen weight, listed as Ce2(CO3)3•6H2O synthesized according to Example 3
  % of MB dye photodegradation after 4 h of UV irradiation in photoreactor: 36 ± 2%
1.5 wt. % added agent relative to sunscreen weight
  % of MB dye photodegradation after 4 h of UV irradiation in photoreactor: 25%±2
